Source: patent publication US4393178A, “Fast crystallizing polyester compositions” (priority 1979, dated 1983)
Where “and” joins values, the source holds several entries; their conditions need not be identical. Identical values can stand only once. Counter-ions that a name gives are not always drawn. Like-named read-outs stand apart in the source and are kept apart here.

Tests used:
[1] = Half-crystallisation time (t1/2), isothermal DSC; format: physicochemical
Experimental: A DSC 2 Perkin Elmer scanning calorimeter was used.
10 mg of the sample of polymer material are placed in a capsule and introduced into the apparatus, wherein the sample is quickly heated to a temperature of 290° C. at which it is maintained during 1 minute.
The molten polymer material is then very quickly cooled by means of liquid air (at a rate of 320° C. per minute) until the crystallisation temperature is reached.
The crystallisation isotherm is registered on a temperature-time graph and the peak appearing on the registered isotherm is taken as the half-crystallisation time (t1/2).

[2] = Degradation constant K (melt degradation performance); format: physicochemical; parameters: unit not given here; details: 1% salt in PET, 2-roll mill 270 °C 5 min; molten state 290 °C
Experimental: The melt degradation performance is a measure of the extent of degradation under molten conditions. A convenient method of quantifying the performance is by measuring the "K value". A method for determining this value in the molten state using an Instron Capillary rheometer is given in a paper by J. Devaux et al in Makromol.
This method is carried out on samples prepared by reacting the salt with the polyester on a 2 roll-mill at a temperature above the melting point of the polyester for 5 minutes and then pressing the product obtained into a 2 mm thick sheet using the same temperature for 3 minutes before cooling to room temperature. The method is described for polyethylene terephthalate but can be readily adapted for other polyesters.
For polyethylene terephthalate the K value in the presence of salt should be less than 60.

[3] = ΔT = Tc(cooling) - Tn(heating), DSC; format: physicochemical; details: 1% salt in PET, 2-roll mill 270 °C 5 min; 10 °C/minute
Experimental: An alternative method for assessing the effectiveness of nucleation of an additive is to compare the difference between the value of the crystallisation peak on cooling (Tc) with that on heating (Tn) for a composition containing an ionisable salt. The value obtained from this comparison, Tc(cooling) -Tn(heating) is termed ΔT. […] Samples of polyester together with 1% of the salt under test were mixed in a 2-roll mill at 270° C. for 5 minutes. The sample produced was pressed into 2 mm thick sheets at 270° C. for 3 minutes and then cooled to room temperature. 10 mg of the sample was placed in a capsule and rapidly heated to 290° C. After maintaining this temperature for 1 minute the capsule was quenched in water. The crystallisation peak temperatures on heating (Tn) and cooling (Tc) were determined using heating and cooling rates of 10° C./minute on a Perkin Elmer DSC 2 machine.

[4] = Crystallisation peak temperature on heating (Tn), DSC; format: physicochemical; details: for Tn (16° C./min): 1% salt deposited from solution on PET; for Tn(composition)-Tn(polyester): PET I.V. 0.73 + 1% salt, 2-roll mill 300 °C 2 min, 10 °C/minute
Experimental: In one such DSC technique the crystallisation peak temperature difference, Tn(composition)--Tn(polyester) is determined by measuring the crystallisation peak temperatures on heating for the composition in comparison with the polyester of the composition not containing the ionisable salt. The detailed procedure is as follows. Compositions were prepared from the polyester and the additive by mixing on a 2-roll mill at 300° C. for 2 minutes. The sample was taken from the mill and pressed into a film in a compression moulding machine. 10 mg samples of the composition were placed in a capsule, rapidly heated to 290° C. and maintained at that temperature for 1 minute. The capsule was then dropped into water to quench the polymer and prevent crystallisation. The sample was then placed in a Perkin Elmer DSC 2 machine and heated at a rate of 10° C./minute until reaching a temperature of 290° C. The crystallisation peak temperature observed on this heating cycle is recorded and compared with the value for the polyester not containing the additive.
Samples of polyethylene terephthalate (I.V. =0.73) containing 1% of the salts listed in Table 2 were prepared by compounding at 300° C. on a 2-roll mill for 2 minutes. The samples were evaluated to determine Tn(composition-Tn(polyester), the total number of end groups, the number of carboxylate groups and the number of hydroxyl and carboxyl groups.
The salts listed in Table 3 were deposited from solution on the surface of polyethylene terephthalate chip to give a concentration of 1% by weight of salt. The product was dried under vcuum at 96° C. for 3 hours. The compositions were pressed into film using a temperature of 280° C. for 1 minute. The DSC measurements were made after quenching from the melt to prevent crystallisation and using a heating rate of 16° C./minute.
1% by weight of the sodium salt of saccharin was deposited on the surface of granules of a polyethylene terephthalate homopolymer of I.V. =0.73 by evaporating an aqueous solution of the salt from the granules by drying at 96° C. under vacuum for 3 hours. The granules obtained were compression moulded into film by pressing at 280° C. for 60 second. The film was used for measurements of Tn at a heating rate of 16° C./minute.
The effect of the salts listed in Table 4 was determined by taking granules of a polymer of poly(ethylene terephthalate) homopolymer having an intrinsic viscosity of 0.73 and evaporating a solution of the salt in methanol or water from the surface of the granules by drying at 96° C. under vacuum for 3 hours. The proportions of polymer and solution used were such as to give a concentration of 1% of salt by weight of the final dry composition. The granules obtained were compression-moulded into film at 280° C. for various periods of time. The film was used for measurement of Tn as hereinbefore described.
Two samples of polyethylene terephthalate chip (I.V. =0.73) were coated from solution with 1% of the sodium salt of o-hydroxybenzoic acid and the disodium salt of the same acid respectively. After drying for 3 hours in a vacuum oven at 95° C. films were prepared by pressing the products for 1 minute at 280° C.

[5] = Degradation constant K (melt degradation performance); format: physicochemical; parameters: unit not given here; details: 1% salt deposited from solution on PET (Examples 13-15)
[6] = Solubility parameter δ of the acid; details: product for the acid
End group determination = format: physicochemical
Experimental: The numbers of hydroxyl and carboxyl groups were also determined according to the procedure given in this paper.
[…] The samples were evaluated to determine Tn(composition-Tn(polyester), the total number of end groups, the number of carboxylate groups and the number of hydroxyl and carboxyl groups.

[7] = Crystallisation peak temperature on heating (Tn), DSC, block copolymer; format: physicochemical; details: 1% salt from solution on block copolymer; heating rate 16 °C/minute
Experimental: A block copolymer containing 5% by weight of polyethylene glycol units of molecular weight 1540 in chip form was blended with a solution of the sodium salt of o-chlorobenzoic acid to give a salt concentration of 1% by weight of the polyester. Samples were prepared for DSC analysis using the procedure of Example 15.
The polymer used in Example 16 and 1% of the disodium salt of o-hydroxy benzoic acid were compounded on a 2-roll mill at 270° C. for 2 minutes. […] (measured at a heating rate of 10° C./minute).

[8] = cited from earlier work
[9] = 110 °C, 1% salt in PET, 2-roll mill 270 °C 5 min, after melting 1 minute at 290 °C
[10] = 120 °C, 1% salt in PET, 2-roll mill 270 °C 5 min, after melting 1 minute at 290 °C
[11] = PET I.V. 0.73 + 1% salt, 2-roll mill 300 °C 2 min
[12] = acid from which the salt is derived, in water
[13] = pressed 280 °C 1 minute, heating rate 16 °C/minute
[14] = 1% salt deposited from solution on PET chip, pressed 280 °C 1 minute

| t1/2 (sec) 110° C. [1, 9] [s] | t1/2 (sec) 120° C. [1, 10] [s] | δ × pKH.sbsb.2O [6] | SMILES | K [2] | ΔT [3] [°C] | pKH.sbsb.2O [8, 12] | other results |
| --- | --- | --- | --- | --- | --- | --- | --- |
| 65 | 36 | 37 | O=C(O)c1ccccc1Cl [ortho-chlorobenzoic acid] | 32 | 108 |  | Tn(composition)-Tn(polyester) [4]: 26 °C; % of carboxylate end group (End group determination; [11]): 22%; End Groups --COOH (End group determination; [11]): 45 moles × 10^-6 g^-1; End Groups --OH (End group determination; [11]): 55 moles × 10^-6 g^-1; End Groups Carboxylate (End group determination; [11]): 37 moles × 10^-6 g^-1; End Groups Total from solution I.V. (End group determination; [11]): 167 moles × 10^-6 g^-1; Tn [7]: 102 °C; pKH.sbsb.2O ([8]; water): 3 |
| 60 | 35 | 34 | O=C(O)c1ccc(Cl)cc1Cl [2,4-dichlorobenzoic acid] | 65 | 109 | 2.8 | Tn(composition)-Tn(polyester) [4]: 23 °C; % of carboxylate end group (End group determination; [11]): 16.7%; End Groups --COOH (End group determination; [11]): 67 moles × 10^-6 g^-1; End Groups --OH (End group determination; [11]): 55 moles × 10^-6 g^-1; End Groups Carboxylate (End group determination; [11]): 32 moles × 10^-6 g^-1; End Groups Total from solution I.V. (End group determination; [11]): 192 moles × 10^-6 g^-1 |
| 65 | 40 | 29 | O=C(O)c1cc([N+](=O)[O-])ccc1Cl [2-chloro-5-nitrobenzoic acid] | 52 | 108 |  | pKH.sbsb.2O ([8]; water): 2.2 |
| 70 | 38 | 50 | O=C(O)c1ccc(F)cc1 [para fluorobenzoic acid] | 60 | 104 | 4.1 |  |
| 165 | 55 | 54 | O=C(O)c1cccc(O)c1 [metra-hydroxy benzoic acid] | 86 | 91 | 3.9 |  |
| 75 | 54 | 46 | O=C(O)c1ccc([N+](=O)[O-])cc1 [para-nitrobenzoic acid] | 79 | 102 |  | pKH.sbsb.2O ([8]; water): 3.4 |
| 110 | 50 | 26 | O=C(O)c1c(O)cc(O)cc1O [2,4,6-dihydroxy benzoic acid] | 37 | 97 | 1.7 |  |

More lines, now with the values behind:

| SMILES | t1/2 (sec) 110° C. [1, 9] [s] | t1/2 (sec) 120° C. [1, 10] [s] | δ × pKH.sbsb.2O [6] | K [2] | ΔT [3] [°C] | pKH.sbsb.2O [8, 12] | other results |
| --- | --- | --- | --- | --- | --- | --- | --- |
| O=C(O)c1ccccc1O [ortho-hydroxy benzoic acid] |  |  |  | 26 | 105 |  | t1/2 (sec) 110° C. [1]: 80 s; t1/2 (sec) 120° C. [1]: 40 s; Tn (16° C./min) ([4]; pressed 280 °C 1 minute, heating rate 16 °C/minute, listed as sodium salt of o-hydroxybenzoic acid): 114 °C; K ([5]; listed as sodium salt of o-hydroxybenzoic acid): 26 |
| O=C(O)c1cc([N+](=O)[O-])cc([N+](=O)[O-])c1 [3,5-dinitrobenzoic acid] | 85 | 45 | 38 | 44 | 102 | 2.8 |  |
| O=C(O)c1cccc([N+](=O)[O-])c1 [meta-nitrobenzoic acid] |  |  | 30 | 20 | 106 |  | t1/2 (sec) 110° C. [1]: 65 s; t1/2 (sec) 120° C. [1]: 45 s; pKH.sbsb.2O ([8]; water): 2.2 |
| O=C(O)c1ccc(Oc2ccccc2)cc1 [para-oxyphenylbenzoic acid] |  |  | 47 | 40 | 105 | 3.5 | t1/2 (sec) 110° C. [1]: 73 s; t1/2 (sec) 120° C. [1]: 38 s |
| O=C(O)c1cc(O)ccc1O [2,5-dihydroxy benzoic acid] |  |  |  | 22 | 103 | 3 | t1/2 (sec) 110° C. [1]: 85 s; t1/2 (sec) 120° C. [1]: 48 s |
| O=C(O)c1ccco1 [Sodium salt of 2-furoic acid] |  |  |  |  |  |  | Tn (16° C./min) [4, 13]: 127 °C; End Groups --COOH (End group determination; [14]): 29 moles × 10^-6 g^-1; End Groups --OH (End group determination; [14]): 62 moles × 10^-6 g^-1; End Groups Total from solution I.V. (End group determination; [14]): 121 moles × 10^-6 g^-1; K [5]: 65 |
| O=C(O)c1ccc(O)cc1O [2,4-dihydroxy benzoic acid] | 95 | 45 | 47 | 35 | 99 | 3.2 |  |
| O=C(O)c1cccc(Cl)c1 [meta-chlorobenzoic acid] |  |  | 47 | 31 | 107 | 3.8 | t1/2 (sec) 110° C. [1]: 63 s; t1/2 (sec) 120° C. [1]: 40 s |
| O=S(=O)(O)c1ccccc1 [Sodium benzene sulphonate, reference compound] |  |  |  |  |  |  | Tn [4]: 146 °C and 141.5 °C; Dissociation Constant ([8]; water): 2 × 10^-1 |
| O=C1NS(=O)(=O)c2ccccc21 [sodium salt of saccharin] |  |  |  |  |  |  | Tn (16° C./min) [4, 13]: 112 °C; K [5]: 9 |
| O=C(O)c1cccs1 [Sodium salt of 2-thiophencarboxylic acid] |  |  |  |  |  |  | Tn(comp.)-Tn(PET) (16° C./min) ([4]; 1% salt deposited from solution on PET chip, pressed 280 °C 1 minute, heating rate 16 °C/minute): 29 °C; Tn (16° C./min) [4, 13]: 112 °C; End Groups --COOH (End group determination; [14]): 24 moles × 10^-6 g^-1; End Groups --OH (End group determination; [14]): 59 moles × 10^-6 g^-1; End Groups Total from solution I.V. (End group determination; [14]): 145 moles × 10^-6 g^-1; K [5]: 15 |
